Measured values: US20210386828A1, “METHODS FOR ENHANCING CANCER IMMUNOTHERAPY” (The Regents of the University of California, priority 2018, published 2021)

Tests used:
[1] = system: Myc-CaP cells; assay: qRT-PCR of MHC-I component mRNAs in Myc-CaP cells; format: cell-based, mouse; conditions: for effect of exogenous IFNγ on induction of MHC-I antigen presentation and processing genes by the platinoid: plus IFNγ
Excerpt: (§1) Each dot represents an experiment and horizontal lines denote the median.

[2] = system: Myc-CaP cells; assay: Surface MHC (H-2Kq) expression by flow cytometry; format: cell-based, mouse; conditions: for surface expression of H-2Kq: agent as named; for effect on the H-2Kq response to IFNγ: platinoid plus IFNγ
Excerpt: as §1

[3] = system: Myc-CaP and TRAMP-C2 cells; assay: RNA-seq of mouse PCa cells incubated with platinoids; format: cell-based; conditions: 2 μM, Myc-CaP
Description: FIGS. 1E-1G show total RNA from Myc-CaP cells incubated with indicated agents for 24 hr was subjected to RNA-seq. Top 20 hallmark gene sets were sorted by normalized enrichment score (NES). Immune-related gene sets are in blue (IFNγ signaling in light blue).
The top 20 hallmark gene sets sorted by normalized enrichment score (NES) are shown to depict the Oxali- and Cis-induced responses determined by GSEA analysis. Immune-related gene sets are colored blue (IFNγ signaling in light blue). […] Immune-related gene sets are in blue (IFNγ signaling in light blue).
To investigate how low-dose Oxali affects the PCa transcriptome, RNA sequencing (RNA-seq) was conducted on mouse PCa cells (Myc-CaP and TRAMP-C2) incubated with 2 μM of either Oxali or Cisplatin (Cis), a platinoid that, unlike Oxali, minimally enhances the response to PD-L1 blockade or ISP ablation (Pfirschke et al., 2016; Shalapour et al., 2015).

[4] = system: Myc-CaP cells; assay: Immunoblot of IRF1 and phosphorylated STAT1; format: cell-based, mouse
Excerpt: Protein loading was confirmed with tubulin antibodies.
The basis for the synergy between low-dose Oxali and IFNγ was investigated. […] Given the ability of Oxali to induce Ifngr2 mRNA expression, not only in Myc-CaP cells (FIG. 2D) but also in mouse and human melanoma cell lines (FIGS. 11C and 11D), it was postulated that the synergistic activation of IRF1 and STAT1 by Oxali plus IFNγ may be due to IFNγR2 induction.

[5] = system: Myc-CaP cells; assay: Nuclear abundance of transcription factors (IB, flow cytometry); format: cell-based, mouse; conditions: 2 μM Oxali
[6] = system: Myc-CaP cells
Excerpt: CRISPR-Cas9 was used to ablate cyclic GMP-AMP synthase (cGAS, encoded by Mb21d1) and Ifnar2 (FIG. 11K).

[7] = cells incubated with Oxali or Oxali+IFNγ

N.N.O=C([O-])C1(C(=O)[O-])CCC1.[Pt+2] [Carbo, carboplatin]
effect of exogenous IFNγ on induction of MHC-I antigen presentation and processing genes by the platinoid [1]: not as strong as that of Oxali+IFNγ | surface expression of H-2Kq [2]: barely induced surface H-2Kq | effect on the H-2Kq response to IFNγ [2]: potentiated the response to IFNγ

N.N.[Cl][Pt][Cl] [Cis, Cisplatin]
induction of gene set responsive to NF-κB-dependent TNF signaling [3]: strongly induced | effect of exogenous IFNγ on induction of MHC-I antigen presentation and processing genes by the platinoid [1]: not as strong as that of Oxali+IFNγ | surface expression of H-2Kq [2]: barely induced surface H-2Kq | effect on the H-2Kq response to IFNγ [2]: potentiated the response to IFNγ | effect on IRF1 induction by IFNγ ([4]; added to IFNγ): strongly potentiated | STAT1 phosphorylation ([4]; added to IFNγ-treated cells): dramatically increased | nuclear abundance of p65, NF-κB, CREB1, ATF3, P-ATM and JunB [5]: more transient and weaker effect | γH2AX, marker of DNA damage [6]: γH2AX induction

COc1c(Cl)cc2c([nH]c3cnccc32)c1NC(=O)c1cccnc1C [ML120B]
synergistic Psmb9 and Nlrc5 mRNA induction under IKKβ inhibition ([1]; Oxali+IFNγ): attenuated | decrease in Ifngr2 mRNA [1, 7]: 4 fold | H-2Kq surface expression under IKKβ inhibition [2, 7]: reduced
